Test results as given in patent US9414901B2, “Drug-eluting stents for adenosine receptor modulation” (Indiana University Research and Technology Corporation, priority 2009, dated 2016).
In brackets after ≈: the same amount, converted by molar mass.

Assays:
[1] = system: porcine CSM (coronary artery smooth muscle cells); test: CSM proliferation/viability by MTT assay on collagen matrix/DPCPX-loaded PU film; assay type: cell-based, Ossabaw pigs; conditions: no DPCPX release, day 4
Protocol: A drug eluting film coated on the cover glass was placed in each well of a 24-well plate for a cell culture study.
Hearts were harvested from Ossabaw pigs. Coronary arteries dissected from the hearts were placed in a physiological buffer. Porcine CSM were enzymatically dispersed from coronary arteries using collagenase solutions. Primary cultured CSM were subcultured at 37° C. with 5% CO2 in DMEM containing 10% fetal bovine serum (FBS). CSM cultured with 80% confluence were used between passage 4 and 10.
The CSM were seeded on the surface of type I collagen that was gelated on the DPCPX-loaded PU film. The DPCPX-loaded PU films with various drug/polymer ratios and pure PU film as a control were placed in 24-well plates. Collagen solution was prepared by mixing eight parts of PURECOL (3 mg/mL) with one part of 10×PBS. The pH of the collagen solution was adjusted to 7.4 by adding 0.01 N HCl and 0.1 M NaOH. […] Subcultured CSM were suspended by trypsinization, counted and seeded on the collagen matrix/DPCPX-loaded PU film in 24 wells. […]
After 4 days, cell proliferation was estimated using an MTT cell growth assay kit (Chemicon International). […] The absorbance was read at 490 nm, which was directly proportional to the number of living cells. The measured absorbance in each treatment group was compared to the percent of control. […]

porcine CSM = conditions: cited from earlier work
[2] = In vitro DPCPX release from coated stents in PBS (HPLC); assay type: physicochemical; conditions: stents coated with DPCPX in polymer-1 or polymer-2 (PLGA), 30% and 50% DPCPX/polymer, PBS buffer
Protocol: The drug elution profiles of the two different sets of PU films were examined instead of expanded state of stents. […] The release rate was slightly accelerated with the increase in the drug/PU ratio on the stent coated at the constant drug density of 1 μg/mm^2 (30%>20%>10% DPCPX/PU ratio).
In the drug release study, 2 mL of PBS buffer was used as a release medium which was replaced with a fresh solution every day. Release profiles may be partially affected by dissolution-limited release in addition to diffusion-limited release. Previous studies used 1.5 mL of medium with addition of 10% ethanol or 1.5 mL of PBS with 0.005% Tween 20 per stent. Addition of ethanol in the release medium removed the solubility limitation, but ethanol affected the release profiles as confirmed in the accelerated release studies; thus, ethanol was not used in this study.
Stainless steel stents were coated with polymer and DPCPX in concentrations that optimized in vitro elution kinetics of DPCPX (FIG. 5). Stents used for in vivo testing were coated with 300 μg DPCPX and 700 μg PLGA ([…]) polymer. A1R selective antagonist-DPCPX was dissolved in THF along with polymer-1 and polymer-2. The solutions were spray coated on stainless steel stents. […] The amounts of released DPCPX were analyzed using HPLC. […]

[3] = system: in-stent coronary stenosis in metabolic syndrome pigs; test: In-stent stenosis by IVUS 4 weeks after coronary stenting; assay type: in vivo, Ossabaw miniature swine; conditions: IVUS at 4 weeks
Source text: Under angiographic guidance, polymer- and DPCPX-eluting stents were placed in either left circumflex (CFX) or left anterior descending (LAD) artery of anesthetized male Ossabaws by random assignment.
A stainless steel stent deployment was utilized to cause vascular injury, which leads to coronary neointima formation (in-stent stenosis) in lean Ossabaw swine and in Ossabaw swine with metabolic syndrome (also known as pre-diabetes).
Stents were inflated to 1.1× of lumen diameter. The right coronary artery (RC) served as a non-stented control. Pigs were allowed to recover for 4 weeks, then sacrificed, and coronary arteries were harvested for tissue analysis.
In-stent stenosis was quantified as the percent area covered with stenotic lesions in in-stent coronary segments in vivo using intravascular ultrasound (IVUS) right before sacrifice. Percent area in-stent stenosis=Area of Neointima/Area of Original Lumen indicated by stent struts×100.
Bare metal and paclitaxel stents were deployed in coronary arteries of lean and metabolic syndrome (MetS) pigs (n=5/group) with stent:artery ratios at 1.0 (A) and 1.3 (B), *p<0.01. Polymer-coated (Polymer, control) and DPCPX-eluting stents (DPCPX) were deployed concurrently in coronary arteries with stent:artery ratio of 1.1 in lean and MetS pigs (n=5/group, C), *p<0.01. (A-C) IVUS was done 4 weeks after stenting in vivo to evaluate in-stent stenosis. Percent area stenosis of in-stent segments was quantified by IVUS.

[4] = system: ERK, JNK and PI3K-AKT signaling pathways in CSM; conditions: dose-dependent manner; cited from earlier work
physchem = conditions: thermodynamic from solid

For `OC[C@H]1O[C@@H](n2cnc3c(NC4CCCC4)nc(Cl)nc32)[C@H](O)[C@@H]1O` [CCPA, 2-Chloro-N-6-cyclopentyladenosine], the “CSM viability (MTT), % of first control” value ([1]; 0.1 μM CCPA) is given as 121.8%, the “CSM viability (MTT), % of first control” value ([1]; 10 μM CCPA) is given as 112.2% and the “DNA synthesis, protein synthesis, and cell number in porcine CSM” value (porcine CSM) is given as “increase”.
For `CCCn1c(=O)c2[nH]c(C3CCCC3)nc2n(CCC)c1=O` [DPCPX, 1,3-dipropyl-8-cyclopentyl xanthine], the “period over which release of DPCPX was sustained” value [2] is given as ≥ 28 days, the “decrease in in-stent stenosis” value ([3]; eluting stent (300 μg DPCPX, 700 μg PLGA) at 1.1 times lumen diameter, vs polymer-coated stent) is given as 53% and the “adenosine-induced ERK, JNK, and AKT phosphorylation” value [4] is given as “significantly decreases”. The solubility at 48 h (physchem; PBS with 0.05% Tween 20, 37 °C, pH 7.4, aqueous with cosolvent or surfactant or cyclodextrin) was 1.63 ± 0.08 µg/mL (≈ 5.35 µM), the solubility at 48 h (physchem; PBS, 37 °C, pH 7.4, aqueous buffer) was 1.69 ± 0.72 µg/mL (≈ 5.55 µM) and the solubility at 48 h (physchem; distilled water, pH adjusted, 37 °C, pH 3, aqueous buffer) was ~1.6 µg/mL (≈ 5.26 µM). It also gave a solubility at 48 h (physchem; distilled water, pH adjusted, 37 °C, pH 11, aqueous buffer) of 38.1 ± 2.3 µg/mL (≈ 125 µM) and a solubility at 48 h (physchem; water, 37 °C, pH 7.4, water) of 1.62 ± 0.12 µg/mL (≈ 5.32 µM).
For `CC(=O)O[C@H]1C(=O)[C@@]2(C)[C@H]([C@H](OC(=O)c3ccccc3)[C@]3(O)C[C@H](OC(=O)[C@H](O)[C@@H](NC(=O)c4ccccc4)c4ccccc4)C(C)=C1C3(C)C)[C@]1(OC(C)=O)CO[C@@H]1C[C@@H]2O` [Paclitaxel], the “decrease in in-stent stenosis” value ([3]; metabolic syndrome pigs, eluting stent deployed at 1.0 times lumen diameter, vs bare metal stent) was 47% and the “decrease in in-stent stenosis” value ([3]; metabolic syndrome pigs, eluting stent deployed at 1.3 times lumen diameter, vs bare metal stent) was 55%.
In the case of `Nc1ncnc2c1ncn2[C@@H]1O[C@H](CO)[C@@H](O)[C@H]1O` [adenosine], the “DNA synthesis, protein synthesis, and cell number in porcine CSM” value (porcine CSM) is listed as “increase”.
